In patent publication US9376421B2, “Compounds and methods for myotonic dystrophy therapy” (The Board of Trustees of the University of Illinois, priority 2014, dated 2016):

System: d(CTG.CAG)12
Test: Isothermal titration calorimetry, d(CTG.CAG)12
Assay type: binding
Details: 25° C., 20 mM MOPS pH 7.0, 300 mM NaCl
Description: To directly assess the DNA-targeting ability of 9, ITC experiments were performed with oligonucleotide analogs of the various trinucleotide repeat sequences (Table 1). […] This supports the idea that 9 inhibits the transcription of CTG^exp by stabilizing its hairpin structure. […] The in vitro transcription experiment using (CTG[…]CAG)74 (SEQ ID NOS 3-4, respectively) and compounds 2, 5-7, and 9 was repeated but with (CUG)16 (SEQ ID NO: 1) added as a competitor.
Isothermal titration calorimetry (ITC) measurements were performed at 25° C. on a MicroCal VP-ITC (MicroCal, Inc., Northampton, Mass.). A standard experiment consisted of titrating 10 μL of a 500 μM ligand solution from a […] syringe (rotating at 300 rpm) into a sample cell containing 1.42 mL of a 10 μM DNA or RNA solution. An ITC experiment consisted of 28 total injections (first injection was 5 μL, subsequent injections were 10 μL), with a 10 s duration per injection and delay of 380 s between injections. The initial delay prior to the first injection was 300 s. To derive the heat associated with each injection, the area under each isotherm (microcalories per second versus seconds) was determined by integration by the graphing program Origin 7.0 (MicroCal, Inc. Northampton, Mass.). […]

N=C(NCCCCNc1nc(N)nc(N)n1)c1ccc(C(=N)NCCCCNc2nc(N)nc(N)n2)cc1 [Ligand 2]
binding affinity toward d(CTG.CAG)12 by ITC: lack of binding affinity
